Source: ChEMBL document CHEMBL1134058, “Phospho-Azatyrosine, a less effective protein-tyrosine phosphatase substrate than phosphotyrosine” (Bioorg Med Chem Lett, 2001)
Numbered stars: 1 amine (or outer) side, 2 acyl side, 3 side chain; on linkers, the order of the positions; unused ones are H or OH. Square brackets hold non-standard residues; d marks the D form. Peptide text beside a SMILES is read from it. X1 = O=C([C@H](Cc1ccc(OP(=O)(O)O)cn1)N[*:1])[*:2]; pY = N[C@@H](Cc1ccc(OP(=O)(O)O)cc1)C(=O)O

Target: T1, Tyrosine-protein phosphatase non-receptor type 1 (Homo sapiens) (UniProt P18031)
T1 sequence (whole entry): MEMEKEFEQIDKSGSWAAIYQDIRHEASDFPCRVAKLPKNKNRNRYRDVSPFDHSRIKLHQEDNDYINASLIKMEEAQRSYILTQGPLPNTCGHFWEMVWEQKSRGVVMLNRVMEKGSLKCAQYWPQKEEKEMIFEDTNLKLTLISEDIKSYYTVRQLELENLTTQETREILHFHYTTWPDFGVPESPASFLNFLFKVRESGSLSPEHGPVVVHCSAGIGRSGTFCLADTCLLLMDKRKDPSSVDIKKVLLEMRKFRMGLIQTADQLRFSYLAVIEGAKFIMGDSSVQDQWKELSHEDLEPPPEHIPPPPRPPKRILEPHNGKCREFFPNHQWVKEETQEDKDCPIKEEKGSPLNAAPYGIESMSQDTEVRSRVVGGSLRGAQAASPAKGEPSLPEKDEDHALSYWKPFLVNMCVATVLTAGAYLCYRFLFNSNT
Assay: Catalytic turnover rate was determined.

| Compound | k cat [s⁻¹] |
| --- | --- |
| CC(=O)N[C@@H](CC(=O)O)C(=O)N[C@@H](C)C(=O)N[C@@H](CC(=O)O)C(=O)N[C@@H](CCC(=O)O)C(=O)N[C@@H](Cc1ccc(OP(=O)(O)O)cn1)C(=O)N[C@@H](CC(C)C)C(N)=O (Ac-DADE[X1]L-NH2) | 52 |
| CC(=O)N[C@@H](CC(=O)O)C(=O)N[C@@H](C)C(=O)N[C@@H](CC(=O)O)C(=O)N[C@@H](CCC(=O)O)C(=O)N[C@@H](Cc1ccc(OP(=O)(O)O)cc1)C(=O)N[C@@H](CC(C)C)C(N)=O (Ac-DADE[pY]L-NH2) | 68 |
